Assay results taken from US5466675A, “Immunological activity of rhamnolipids” (priority 1992, dated 1995).

Experiments:
lipoxygenase = assay: enzyme inhibition, lipoxygenase; assay type: biochemical
Procedure: (§1) Rhamnolipid (II) was tested in vitro against a wide array of enzymes.
(§2) The following enzymes were inhibited at the various rhamnolipid concentrations indicated:
(§3) All enzyme assays were done spectrophotometrically by computer linked automatic microplate reader (Labsystem Multiskan) and Diode Array spectrophotometer (Perkin Elmer).

papain = papain (Carica papaya, UniProt P00784); assay: enzyme inhibition, papain; assay type: biochemical
Procedure: as §1, §3

Psoriasis = conditions: 1% rhamnolipid ointment; Belgium patent No. 1,005,704; cited from earlier work
alpha-amylase = assay: enzyme inhibition, alpha-amylase; assay type: biochemical
Procedure: as §1, §2, §3

P59fyn Tyrosine Kinase = P59fyn Tyrosine Kinase (Homo sapiens, UniProt P06241); assay: enzyme inhibition, p59fyn tyrosine kinase; assay type: biochemical; conditions: 0.5% DMSO
Procedure: as §1, §3

[1] = system: tissue plasminogen activator (t-PA) released by human umbilical cord venous endothelial cells; assay: tissue plasminogen activator release; assay type: cell-based
Staphylococcus aureus = assay: minimum inhibitory concentration, Staphylococcus aureus; assay type: cell-based; conditions: in tested medium
Source text: The Minimum inhibitory concentration (MIC) of Rhamnolipid II for Candida albicans, Escherichia coli, Staphylococcus aureus and Pseudomonas aeruginosa was >0.5% in tested medium.

bacterial revertants = assay: Ames test; assay type: cell-based; conditions: 10, 100, 200, 500, 1000 ug/plate
Procedure: Tests were performed according to the method described by Ames N. Bruce et al. (Mutation Research, 31 (1975), 347- 364). Test concentrations of rhamnolipid (II) were 10, 100, 200, 500, 1000 ug/plate.
In the range of tested rhamnolipid concentrations, the number of bacterial revertants per Petri dish was in the range of spontaneous revertants which are present without S9 mixture. Therefore, it can be concluded that Rhamnolipid (II) was not mutagenic at the tested concentrations.

[2] = system: Dermatitis circumscripta unilocularis; assay: clinical treatment of dermatitis circumscripta unilocularis; assay type: in vivo, human; conditions: one patient
Procedure: 17 patients, 11 men and 6 women, were treated with rhamnolipid (II). Among these, 12 patients were suffering from Psoriasis, 2 from Neurodermitis, 1 from Lichen ruber planus, 1 from Serborhoic dermatitis and one from Dermatitis circumscripta unilocularis eczematoides.

[3] = system: sheep red blood cell (SRBC) hemagglutination; assay: immunosuppression (humoral): sheep red blood cell (SRBC) hemagglutination; assay type: in vivo, mouse (ICR, female)
Procedure: Groups of 6 mice were sensitized by the IV injection of 0.2 ml of a 2% SRBC suspension. On the 9th day following sensitization, blood samples were withdrawn from the orbital sinus and equal parts of complement inactivated serum from the group of 6 mice were pooled to yield a single 0.25 ml sample. Serial 2-fold dilutions were then carried out 10 times in the presence of added complement. […] Serum titers of less than 16 or greater than 128 are considered significant and indicate possible immunosuppressant and immunostimulant activity, respectively.
For immunostimulant activity, test substance or vehicle was administered i.p. to groups of mice for 3 consecutive days, and sensitized to SRBCs 2 hours after the third (last) injection. For immunosuppressant activity, test substance or vehicle was administered i.p. to groups of mice for 3 consecutive days beginning 2 hours after sensitization to SRBCs.

Candida albicans [4] = assay: immunomodulation: infection with Candida albicans; assay type: in vivo, mouse (ICR, female); conditions: for Survivor No.: n = 10
Procedure: The test compound or vehicle was administered i.p. to groups of 10 mice 1 hour before IV, challenge with suspension of C. albicans sufficient to result in 90 to 100% mortality within 10 days in the vehicle treated control group. A greater than 30 percent survival for any treated group is considered very significant, and possibly a result of immunomodulation, while an increase of 20% is considered a moderate immunomodulation activity.

mice C57B1/6 = conditions: mouse, in vivo
Procedure: Tests were performed on mice C57B1/6, Animal source: Bantin and Kingman. This was done following the procedures described elsewhere in Technical Report Series, National Toxicology Program, U.S. Department of Health and Human services.
Examinations were made in all tests on the following tissues from each mouse necropsied: bone (femur), bone marrow (femur)-slide only, brain, colon, duodenum, testes, heart, kidneys, liver, lungs (infuse with formalin), pancreas, spleen, muscle, adrenal nodes, uterus, gastric.

Candida albicans [5] = assay: immunorestoration: immunosuppression with cyclophosphamide and infection with Candida albicans; assay type: in vivo, mouse (ICR, female); conditions: for Survivor No.: n = 10
Source text: […] One day after the last immunosuppressant dose, the mice were challenged with a suspension of C. albicans sufficient to result in 90 to 100 percent mortality within 10 days in the vehicle treated control group. A greater than 30 percent survival for any drug treated group is considered significant, and possibly a result of immunorestorant activity.

[6] = IP 0.1 × 3 mg/kg + cyclophosphamide
[7] = IP 1 × 3 mg/kg + cyclophosphamide
[8] = IP 10 × 3 mg/kg + cyclophosphamide
[9] = IP 100 × 3 mg/kg + cyclophosphamide

P59fyn Tyrosine Kinase, sequence (P06241 whole entry): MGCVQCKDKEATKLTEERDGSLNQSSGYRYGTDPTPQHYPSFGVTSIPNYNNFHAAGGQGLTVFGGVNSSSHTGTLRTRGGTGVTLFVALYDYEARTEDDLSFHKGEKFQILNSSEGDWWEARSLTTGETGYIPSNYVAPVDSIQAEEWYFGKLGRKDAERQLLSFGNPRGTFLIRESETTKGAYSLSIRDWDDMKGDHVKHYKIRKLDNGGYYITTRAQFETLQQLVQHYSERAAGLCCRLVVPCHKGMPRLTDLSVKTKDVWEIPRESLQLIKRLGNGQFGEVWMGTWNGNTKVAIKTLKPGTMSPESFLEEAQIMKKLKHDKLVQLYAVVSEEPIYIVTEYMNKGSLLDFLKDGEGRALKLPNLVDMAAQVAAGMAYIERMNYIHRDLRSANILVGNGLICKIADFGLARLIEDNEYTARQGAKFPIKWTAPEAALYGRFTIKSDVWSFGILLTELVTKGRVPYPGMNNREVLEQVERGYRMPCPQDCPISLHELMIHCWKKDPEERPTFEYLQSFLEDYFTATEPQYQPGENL
papain, sequence (P00784 134-345): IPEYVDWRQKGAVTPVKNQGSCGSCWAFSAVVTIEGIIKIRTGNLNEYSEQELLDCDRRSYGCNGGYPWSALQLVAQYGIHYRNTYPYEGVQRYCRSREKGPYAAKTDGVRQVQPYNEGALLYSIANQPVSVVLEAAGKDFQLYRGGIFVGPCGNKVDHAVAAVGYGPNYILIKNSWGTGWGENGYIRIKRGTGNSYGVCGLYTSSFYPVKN

SMILES: CCCCCCCC(CC(=O)O)OC(=O)CC(CCCCCCC)O[C@@H]1O[C@@H](C)[C@H](O)[C@@H](O)[C@H]1O[C@@H]1O[C@@H](C)[C@H](O)[C@@H](O)[C@H]1O (stereo partly drawn) [Rhamnolipid (II), (alpha-L-rhamnopyranosyl-(1,2)alpha-L-rhamnopyranosyl)-3-hydroxydecanoyl-3-hydroxydecanoic acid]
- concentration at which the enzyme was inhibited (lipoxygenase): 10 µg/mL
- effect on enzyme (papain): no effect
- activity in treatment of Psoriasis (Psoriasis): strong activity
- concentration at which the enzyme was inhibited (alpha-amylase): 1 mg/mL
- inhibition at 0.01 µM (P59fyn Tyrosine Kinase; 0.01 μM): 1%
- inhibition at 1 µM (P59fyn Tyrosine Kinase; 1 μM): 0%
- inhibition at 100 µM (P59fyn Tyrosine Kinase; 100 μM): 15%
- t-PA release induced by PMA ([1]; 0.1 mg/ml, PMA induced): slightly inhibited
- basal t-PA release ([1]; basal): no effect
- Minimum inhibitory concentration (MIC) (Staphylococcus aureus): > 0.5%
- mutagenicity (Ames test) (bacterial revertants): not mutagenic
- mutagenicity (Ames test) (bacterial revertants; listed as rhamnolipid II): negative
- cure [2]: completely cured
- SERUM TITER (Reciprocal Serum Dilution) ([3]; IP 0.1 × 3 mg/kg): 32
- SERUM TITER (Reciprocal Serum Dilution) ([3]; IP 1 × 3 mg/kg): 32
- SERUM TITER (Reciprocal Serum Dilution) ([3]; IP 10 × 3 mg/kg): 128
- SERUM TITER (Reciprocal Serum Dilution) ([3]; IP 100 × 3 mg/kg): 16
- died on Day 3 ([3]; IP 100 × 3 mg/kg): 2/6
- immunomodulation activity (Candida albicans [4]; 10 mg/kg and 1 mg/kg): moderate activity
- Death, days post-inoculum 0-1 (Candida albicans [4]; IP 0.1 × 3 mg/kg): 3 #/10 Mice
- Death, days post-inoculum 2-3 (Candida albicans [4]; IP 0.1 × 3 mg/kg): 4 #/10 Mice
- Death, days post-inoculum 4-6 (Candida albicans [4]; IP 0.1 × 3 mg/kg): 1 #/10 Mice
- Death, days post-inoculum 7-9 (Candida albicans [4]; IP 0.1 × 3 mg/kg): 0 #/10 Mice
- Response Inc. % (Candida albicans [4]; IP 0.1 × 3 mg/kg): 0%
- Survivor No. (Candida albicans [4]; IP 0.1 × 3 mg/kg): 2
- Death, days post-inoculum 0-1 (Candida albicans [4]; IP 1 × 3 mg/kg): 2 #/10 Mice
- Death, days post-inoculum 2-3 (Candida albicans [4]; IP 1 × 3 mg/kg): 3 #/10 Mice
- Death, days post-inoculum 4-6 (Candida albicans [4]; IP 1 × 3 mg/kg): 1 #/10 Mice
- Death, days post-inoculum 7-9 (Candida albicans [4]; IP 1 × 3 mg/kg): 0 #/10 Mice
- Response Inc. % (Candida albicans [4]; IP 1 × 3 mg/kg): 20%
- Survivor No. (Candida albicans [4]; IP 1 × 3 mg/kg): 4
- Death, days post-inoculum 0-1 (Candida albicans [4]; IP 10 × 3 mg/kg): 0 #/10 Mice
- Death, days post-inoculum 2-3 (Candida albicans [4]; IP 10 × 3 mg/kg): 5 #/10 Mice
- Death, days post-inoculum 4-6 (Candida albicans [4]; IP 10 × 3 mg/kg): 1 #/10 Mice
- Death, days post-inoculum 7-9 (Candida albicans [4]; IP 10 × 3 mg/kg): 0 #/10 Mice
- Response Inc. % (Candida albicans [4]; IP 10 × 3 mg/kg): 20%
- Survivor No. (Candida albicans [4]; IP 10 × 3 mg/kg): 4
- Death, days post-inoculum 0-1 (Candida albicans [4]; IP 100 × 3 mg/kg): 6 #/10 Mice
- Death, days post-inoculum 2-3 (Candida albicans [4]; IP 100 × 3 mg/kg): 4 #/10 Mice
- Death, days post-inoculum 4-6 (Candida albicans [4]; IP 100 × 3 mg/kg): 0 #/10 Mice
- Death, days post-inoculum 7-9 (Candida albicans [4]; IP 100 × 3 mg/kg): 0 #/10 Mice
- Response Inc. % (Candida albicans [4]; IP 100 × 3 mg/kg): 0%
- Survivor No. (Candida albicans [4]; IP 100 × 3 mg/kg): 0
- in vivo immunomodulation activity (Candida albicans [4]; summary, no dose stated): moderate
- pathohistological changes (mice C57B1/6): none of the regressive-progressive or inflammatory type of changes were detected
- Death, days post-inoculum 0-1 (Candida albicans [5]; [6]): 2 #/10 Mice
- Death, days post-inoculum 2-3 (Candida albicans [5]; [6]): 1 #/10 Mice
- Death, days post-inoculum 4-6 (Candida albicans [5]; [6]): 1 #/10 Mice
- Death, days post-inoculum 7-9 (Candida albicans [5]; [6]): 2 #/10 Mice
- Response Inc. % (Candida albicans [5]; [6]): 20%
- Survivor No. (Candida albicans [5]; [6]): 4
- Death, days post-inoculum 0-1 (Candida albicans [5]; [7]): 2 #/10 Mice
- Death, days post-inoculum 2-3 (Candida albicans [5]; [7]): 2 #/10 Mice
- Death, days post-inoculum 4-6 (Candida albicans [5]; [7]): 1 #/10 Mice
- Death, days post-inoculum 7-9 (Candida albicans [5]; [7]): 1 #/10 Mice
- Response Inc. % (Candida albicans [5]; [7]): 20%
- Survivor No. (Candida albicans [5]; [7]): 4
- Death, days post-inoculum 0-1 (Candida albicans [5]; [8]): 2 #/10 Mice
- Death, days post-inoculum 2-3 (Candida albicans [5]; [8]): 1 #/10 Mice
- Death, days post-inoculum 4-6 (Candida albicans [5]; [8]): 1 #/10 Mice
- Death, days post-inoculum 7-9 (Candida albicans [5]; [8]): 0 #/10 Mice
- Response Inc. % (Candida albicans [5]; [8]): 40%
- Survivor No. (Candida albicans [5]; [8]): 6
- Death, days post-inoculum 0-1 (Candida albicans [5]; [9]): 1 #/10 Mice
- Death, days post-inoculum 2-3 (Candida albicans [5]; [9]): 1 #/10 Mice
- Death, days post-inoculum 4-6 (Candida albicans [5]; [9]): 1 #/10 Mice
- Death, days post-inoculum 7-9 (Candida albicans [5]; [9]): 0 #/10 Mice
- Response Inc. % (Candida albicans [5]; [9]): 50%
- Survivor No. (Candida albicans [5]; [9]): 7
- in vivo immunorestoration activity (Candida albicans [5]; summary, no dose stated): very strong
